Measurements reported in patent US5466610A, “Immunoassays for insulin sensitivity enhancers, insulin sensitivity enhancer antibodies, and non-thiazolidinedione insulin sensitivity enhancer compositions” (Eli Lilly and Company, priority 1993, dated 1995).

What was measured:
[1] = test system: monoclonal antibody 13E3; test: Fluorescent antibody competition assay, IC50 determined with MoAb 13E3; format: binding, mouse
Procedure: (§1) All hybridoma media were screened for monoclonal anti-CS-045 antibodies on day 17 after fusion. The fluorescent antibody capture method was used and approximately 60 monoclonal antibodies were positive for binding of the CS-045 bPE fluorogen. Among these positive monoclonal antibodies, approximately 6 had binding affinity for 3 tested thiazolidinedione ISEs--LY 282449, [drawing 2] CS-045, and ciglitazone. Fifty percent binding inhibitory concentrations (IC50) were determined and data from 4 monoclonal antibodies are shown in Table 1 below.
(§2) Serial dilutions of test compound, fermentation broth, or tissue containing test compound or putative anti-idiotype culture supernatant (20 μl/well) were incubated 20 minutes in 96-well Pandex plates with the appropriate antibody (20 μl/well; 1 μg/ml) plus either goat anti-mouse IgG Latex beads or goat anti-rabbit IgG linked to polystyrene beads (IDEXX) (20 μl/well; 1:2 dilution). Fluorescent reference particles (IDEXX) were included in all assays to minimize well-to-well variation in filtration. […] Incubations were terminated after 20 minutes by vacuum filtration and the polystyrene particles retained on the Pandex filters were then washed twice with TBS-A buffer (described below) and solid phase fluorescence determined as described above.
(§3) Assay buffers typically contained bovine serum albumin (Sigma) at 0.2% (for monoclonal antibody assays) or 0.5% BLOTTO (non-fat dry milk for rabbit antibody assays). Percent inhibition of binding in test incubations was calculated in relationship to binding in control incubations in which no test compound was added using the following formula: % inhibition=[1-(fluorescence at 575/620 nm in test incubations divided by fluorescence at 575/620 nm in control incubations)×100)]. Concentrations of test compound in fermentation broth or plasma was calculated by interpolation from a standard curve generated with known concentrations of the appropriate compound as described in Taber et al., Clinical Chemistry, 37(2):254 (1991).

[2] = test system: 13E3 F(ab')2 fragments; test: ELISA competitive inhibition between CS-045 and anti-idiotypic antibodies on 13E3 F(ab')2 fragments; format: binding, mouse; details: 0-200 μM CS-045; FIG. 3
Procedure: To test whether or not CS-045 could, in turn, displace these anti-idiotypicantibodies, 0.3 μg/well of 13E3 F(ab')2 fragments were coated onto microtiter plates and blocked with 1% BLOTTO (non-fat dry milk). Between 0-200 μM of CS-045 was added to duplicate wells. After approximately two hours at room temperature, wells were washed with BLOTTO and 500 ng of anti-idiotypic antibody 2E5 or 7E7 was added for approximately 1 hour. Goat anti-mouse (Fc -specific) conjugated with horseradish peroxidase was added and, after 30 minutes, washed 3 times with BLOTTO. A peroxidase substrate, tetramethylbenzidine (Kirkegaard and Perry Laboratories, Gaithersberg, Md.) was added and color was developed for approximately 30 minutes at room temperature.

[3] = test system: monoclonal antibody 8F1; test: Fluorescent antibody competition assay, IC50 determined with MoAb 8F1; format: binding, mouse
Procedure: as §1, §2, §3

[4] = test system: monoclonal antibody 10E1; test: Fluorescent antibody competition assay, IC50 determined with MoAb 10E1; format: binding, mouse
Procedure: as §1, §2, §3

[5] = test system: monoclonal antibody 8D6; test: Fluorescent antibody competition assay, IC50 determined with MoAb 8D6; format: binding, mouse
Procedure: as §1, §2, §3

[6] = test system: monoclonal antibody 13E3; test: High-volume screen, fluorescent antibody competition assay (inhibition of binding of CS-045 bPE); design: species or system mouse; details: for % inhibition in screen: approximately 2 μg/ml final concentration, CS-045 bPE binding to 13E3; for IC50: non-thiazolidinedione hits from high-volume screen
Procedure: (§4) Serial dilutions of test compound, fermentation broth, or tissue containing test compound or putative anti-idiotype culture supernatant (20 μl/well) were incubated 20 minutes in 96-well Pandex plates with the appropriate antibody (20 μl/well; 1 μg/ml) plus either goat anti-mouse IgG Latex beads or goat anti-rabbit IgG linked to polystyrene beads (IDEXX) (20 μl/well; 1:2 dilution). Fluorescent reference particles (IDEXX) were included in all assays to minimize well-to-well variation in filtration. Fluorescent CS-045 bPE or LY 301318 bPE (20 μl/well; 1:2,000 dilution) was then added to the wells. Incubations were terminated after 20 minutes by vacuum filtration and the polystyrene particles retained on the Pandex filters were then washed twice with TBS-A buffer (described below) and solid phase fluorescence determined as described above.
as §3
The fluorescent antibody competition assay for high-volume screening was adapted as described below. Goat anti-mouse particles (1:2 dilution), fluorescent reference particles (dilution was optimized for each lot), and monoclonal antibody 13E3 (1 μg/ml) were premixed in TBS-A reaction buffer (0.02M Tris, 0.15M NaCl, 0.2% bovine serum albumin, 0.01% thimerosal, pH 7.5) and 40 μls was added to each well of the Pandex plate. Synthetic organic compounds (dissolved at 5 mg/ml DMSO and then diluted in TBS-A reaction buffer to 2 μg/ml) or 1:40 dilutions of fermentation broths were added to appropriate wells (20 μl/well) and incubated for approximately 20 minutes at room temperature. To each well was next added 20 μl of CS-045 bPE fluorogen; this final mixture was again incubated for approximately 20 minutes at room temperature in the dark. Wells were then aspirated by vacuum filtration and washed twice with TBS-A reaction buffer, and surface fluorescence was read at 545/575 nm and 590/620 nm using the Screen Machine (IDEXX Laboratories, Westbrook, Me.). Each Pandex plate contained both a negative control (only reaction buffer) and a positive control (LY 282449).
Final concentrations of synthetic organic compounds in high-volume screens was approximately 2 μg/ml and final concentrations of filtered fermentation broths were 1:40 (v/v). Wells that produced greater than 50% inhibition of binding of CS-045 bPE on both the initial screening and on retesting were considered positives. […] This problem was eliminated by inspection of data from each channel.

[7] = test system: diabetic female (Avy/a) mice; test: Fed blood glucose in dexamethasone-treated diabetic female Avy/a mice; format: in vivo, mouse; details: subcutaneous, three days; FIG. 4
Procedure: In order to determine if any of these novel, non-thiazolidinedione structures had anti-diabetic activity, LY 116196 was administered subcutaneously for three days to female Avy/a mice, which had been made diabetic by implantation of dexamethasone pellets. These dexamethasone-treated mice are characterized by both hyperglycemia and hyperinsulinemia and are models of type II diabetes. Sulfonylureas and other insulin secretagogues have little, if any, effect on blood glucose concentrations in this insulin-resistant animal model. […] Thus, this high-volume screen has detected a novel, anti-diabetic compound, LY 116196.

[8] = Plasma levels of LY 116196 by fluorescent antibody competition assay; format: in vivo, mouse; details: for concentration at 1 h: 1 hr after third injection; for concentration at 3 h: 3 hr after third injection; for concentration at 6 h: 6 hr after third injection
Procedure: as §4, §3
In the same experiment described in FIG. 4, plasma was prepared from tail blood drawn at 1, 3, 6, and 24 hours after the third subcutaneous injection of LY 116196. Plasma concentrations of LY 116196 (shown in Table 5) were determined directly by the fluorescent antibody competition assay using standards of LY 116196 diluted in TBS-A buffer containing 10% (v/v) normal mouse plasma. This method also has been used to measure blood concentrations of several compounds recognized by monoclonal antibody 13E3 and/or other antibodies produced by the methods described above. Thus, these reagents appear to have general utility for determining […] and tissue concentrations of immunologically positive compounds.

Q: What does the source list for `Cc1c(C)c2c(c(C)c1O)CCC(C)(COc1ccc(CC3SC(=O)NC3=O)cc1)O2` (stereo not shown) [CS-045]?
A: IC50 [1]: 0.2 µM; Displacement of anti-idiotypic antibodies 2E5 and 7E7 [2]: can displace two anti-idiotypic antibodies; IC50 [3]: 1.15 µM; IC50 [4]: 0.03 µM; IC50 [5]: 0.077 µM

Q: With `CC1(COc2ccc(CC3SC(=O)NC3=O)cc2)CCCCC1` (stereo not shown) [Ciglitazone, ciglitazone] as the compound, how does the IC50 [1] read?
A: 1.16 µM

Q: And the IC50 [3]?
A: 12.3 µM

Q: What about the IC50 [4] of the same compound?
A: 0.989 µM

Q: And the IC50 [5]?
A: 0.125 µM

Q: Which results are given for `CCCCCC(=O)c1ccc(OC(C)(C)C(=O)O)cc1` [LY 044047]?
A: % inhibition in screen [6]: 61%; IC50 [6]: 4 µM

Q: Which results are given for `FC(F)(F)c1nc2cc(Cl)c(Cl)cc2[nH]1` [LY 047310]?
A: % inhibition in screen [6]: 60%; IC50 [6]: 5 µM

Q: With `CC(C)(Oc1ccc(/C=C/C(=O)c2ccccc2)cc1)C(=O)O` [LY 099238] as the compound, how does the “% inhibition in screen” value [6] read?
A: 87%

Q: What about the IC50 [6] of the same compound?
A: 2 µM

Q: Which Fed blood glucose [7] does the source give for `CC(C)(Oc1ccc(C(=O)c2ccc(OC(C)(C)C(=O)O)cc2)cc1)C(=O)O` [LY 116196] here?
A: effectively lowered fed blood glucose

Q: And the “Relative fluorescence, sample channel” value ([6]; 545/575 nm, 4.0 μM)?
A: 360

Q: And the “Relative fluorescence, reference channel” value ([6]; 590/620 nm, 4.0 μM)?
A: 6,500

Q: What about the “% inhibition in screen” value [6] of the same compound?
A: 105%

Q: And the IC50 [6]?
A: 0.06 µM

Q: What about the “Plasma concentration of LY 116196” value ([8]; 30 mg s.c., 24 hr after third injection) of the same compound?
A: 0 nM

Q: What about the “Plasma concentration of LY 116196” value ([8]; 100 mg s.c., 24 hr after third injection) of the same compound?
A: 0 nM

Q: And the concentration at 1 h ([8]; mouse, plasma, sc, 30 mg s.c.)?
A: 25 ± 11 µM

Q: What about the concentration at 3 h ([8]; mouse, plasma, sc, 30 mg s.c.) of the same compound?
A: 0.32 ± 0.2 µM

Q: What about the concentration at 6 h ([8]; mouse, plasma, sc, 30 mg s.c.) of the same compound?
A: 0.104 ± 0.052 µM

Q: What about the concentration at 1 h ([8]; mouse, plasma, sc, 100 mg s.c.) of the same compound?
A: 83.3 ± 8 µM

Q: What about the concentration at 3 h ([8]; mouse, plasma, sc, 100 mg s.c.) of the same compound?
A: 6 ± 1.6 µM

Q: And the concentration at 6 h ([8]; mouse, plasma, sc, 100 mg s.c.)?
A: 0.268 ± 0.088 µM

Q: And the concentration at 1 h ([8]; mouse, plasma, sc, 300 mg s.c.)?
A: 528 ± 72 µM

Q: What about the concentration at 3 h ([8]; mouse, plasma, sc, 300 mg s.c.) of the same compound?
A: 24 ± 5.5 µM

Q: What about the concentration at 6 h ([8]; mouse, plasma, sc, 300 mg s.c.) of the same compound?
A: 6.4 ± 3 µM

Q: And the concentration at 24 h ([8]; mouse, plasma, sc, 300 mg s.c., 24 hr after third injection)?
A: 0.452 ± 0.022 µM

Q: Which results are given for `CN(C)C=Nc1nc2c(s1)CCc1sc(C=NN(C)C)nc1-2` [LY 181036]?
A: % inhibition in screen [6]: 90%; IC50 [6]: 2 µM

Q: Which “% inhibition in screen” value [6] does the source give for `CCOC(=O)C(C)OP(=O)(Nc1ccccc1)OC(C)C(=O)OCC` (stereo not shown) [LY 222072] here?
A: 101%

Q: And the IC50 [6]?
A: 8 µM

Q: With `O=C(O)COc1ccccc1/C=N/N=C/c1ccccc1OCC(=O)O` [LY 281809] as the compound, how does the “% inhibition in screen” value [6] read?
A: 89%

Q: And the IC50 [6]?
A: 2 µM

Q: Which IC50 [1] does the source give for `O=C1NC(=O)C(Cc2ccc3oc(Cc4ccc5ccccc5c4)nc3c2)S1` (stereo not shown) [LY 282449] here?
A: 0.52 µM

Q: And the IC50 [3]?
A: 4.98 µM

Q: And the IC50 [4]?
A: 1.41 µM

Q: And the IC50 [5]?
A: 4.76 µM

Q: Which “% inhibition in screen” value [6] does the source give for `CN1C(=CC(=C(C=Cc2ccc3ccccc3[n+]2C)Oc2ccccc2O)c2ccccc2)C=Cc2ccccc21` [LY 283909] here?
A: 70%

Q: Which “% inhibition in screen” value [6] does the source give for `O=P(O)(O)c1ccc(N=Nc2cc(C(F)(F)F)cc3nc(C(F)(F)C(F)F)[nH]c23)cc1` [LY 296345] here?
A: 94%

Q: What about the IC50 [6] of the same compound?
A: 0.25 µM

Q: Which “% inhibition in screen” value [6] does the source give for `O=c1[nH]c(=O)n(Cc2ccc(OCCc3coc(-c4ccccc4)n3)cc2)o1` [LY 301563] here?
A: 88%

Q: What about the IC50 [6] of the same compound?
A: 0.25 µM

Q: Which “% inhibition in screen” value [6] does the source give for `O=C(CC(=O)Nc1nc(-c2ccc(Cl)cc2)cs1)NCCO` [LY 305329] here?
A: 53%

Q: What about the IC50 [6] of the same compound?
A: 3.6 µM

Q: Which results are given for `O=C(O)CC(=O)Nc1nc(-c2ccc(Cl)cc2)cs1` [LY 305334]?
A: % inhibition in screen [6]: 89%; IC50 [6]: 0.25 µM

Q: For `O=C(Nc1ccc(Br)c(Cl)c1)C(F)(C(F)(F)F)C(F)(F)F` [LY 800663], which “% inhibition in screen” value [6] is on record?
A: 65%

Q: What about the IC50 [6] of the same compound?
A: 8 µM

Q: Which “% inhibition in screen” value [6] does the source give for `N#Cc1cc(F)cc(F)c1NC(=O)c1ccc(Cl)c(Cl)c1` [LY 820960] here?
A: 55%

Q: What about the IC50 [6] of the same compound?
A: 4 µM
